# Tests used:
# Assay in all cases: Antimicrobial activity, diffusion agar technique
# Type in all cases: cell-based
# Conditions in all cases: well diameter 6.0 mm, 100 μl tested
# [1] = tested on: Bacillis subtilis (RCMB 010068)
# Description: (§1) The antimicrobial effect of the Adansonia digitata nanoparticles was evaluated against different gram positive and gram negative bacteria as well as fungi. The test was done using the diffusion agar technique and the well diameter was 6.0 mm (100 μl was tested). The mean zone of inhibition in mm±Standard deviation beyond well diameter (6 mm) produced on a range of environmental and clinically pathogenic microorganisms.
# [2] = tested on: Streptococcus pneumoniae (RCMB 010011)
# Description: as §1
# [3] = tested on: Escherichia coli (RCMB 010054)
# Description: as §1
# [4] = tested on: Aspergillus fumigatus (RCMB 02567)
# Description: as §1
compound,measurement,setting,value
CC1(C)S[C@@H]2[C@H](NC(=O)[C@H](N)c3ccccc3)C(=O)N2[C@H]1C(=O)O [Ampicillin],mean zone of inhibition ± Standard deviation beyond well diameter,[1],31.3 ± 1.5 mm
same,mean zone of inhibition ± Standard deviation beyond well diameter,[2],21.0 ± 1.0 mm
Gentamicin,mean zone of inhibition ± Standard deviation beyond well diameter,[3],20.3 ± 0.58 mm
C[C@@H]1[C@H](O)[C@@H](C)/C=C/C=C/C=C/C=C/C=C/C=C/C=C/[C@H](O[C@@H]2O[C@H](C)[C@@H](O)[C@H](N)[C@@H]2O)C[C@@H]2O[C@](O)(C[C@@H](O)C[C@@H](O)[C@H](O)CC[C@@H](O)C[C@@H](O)CC(=O)O[C@H]1C)C[C@H](O)[C@H]2C(=O)O [Amphotericin B],mean zone of inhibition ± Standard deviation beyond well diameter,[4],21.7 ± 1.5 mm

# From patent US9789146B1, “Synthesis of adansonia digitata nanoparticles” (KING SAUD UNIVERSITY, priority 2017, dated 2017)
